From patent US20050282869A1, “Use of a compound in the treatment of sleep disorders and the like, in providing refreshedness on waking and a method for the treatment of grogginess therewith” (priority 2001, published 2005)

What was measured:
[1] = system: patients with temporary sleep disturbance; assay: Clinical trial: wrist actimetry (SDI, time to sleep onset); format: in vivo, human
Text: (§1) The efficacy of triprolidine in enabling a patient to feel refreshed or alert upon waking after taking triprolidine prior to sleeptime was investigated using patients with a history of sleep disorders and utilising triprolidine prepared in accordance with example 3.
(§2) The study herein utilised the following determination methods:— • (a) Karolinska scale as defined in: Int. J. Neuroscience 52 29-37 (1990); and validation: Sleep 17 (3) 236-41 (1994) • (b) Loughborough Sleep log as defined in: Sleep 17 (2)146-159 (1994); and Sleep 18 (2) 127-134 (1995) • (c) Actimetry—AW4 actimeters (Cambridge Neurotechnology) were worn continuously throughout the study. A button was pressed at night when the subject desired to go to sleep and again in the morning upon waking. The results of the actimeter study were analysed in the manner defined by Home et al (Sleep, 17(2); 146-159).
SDI % was calculated as follows:— [formula]
This is the measure of: • 1. The length of time it took to fall asleep • 2. Any awakenings throughout the sleep period • Expressed as a % of total time spent in bed. Study Objectives • To evaluate the effects of two doses of triprolidine compared with placebo. Study Design
(§3) A multiple-dose, placebo-controlled, parallel-group, double-blind, randomised study investigating the effects of 2.5 mg and 5 mg triprolidine in patients with temporary sleep disturbance.
(§4) Male and Female candidates aged 18 years and above were recruited to one of five research centres by means of local advertising. Candidates were screened by means of a telephone questionnaire and selected candidates invited for interview at the research centre. Key inclusion criteria used to select candidates for the study were: • A record of poor sleep at least 2 nights per week • A record of poor sleep for at least 1 week but not more than 3 months • Sleep disturbance not caused by underlying disease • No excess use of alcohol or drugs • Sleep disturbance affected daytime functioning
(§5) The candidates came to the research centre on Thursday or Friday and were fitted with a wrist actimeter (AW4 from Cambridge Technology) to establish a baseline measure for SDI and were provided with diary cards to record subjective assessments for the Loughborough Sleep Log and the Karolinska Sleepiness Scale. They returned to the investigational site on the Monday and were issued with the study compositions (2.5 mg triprolidine, 5 mg triprolidine or placebo). The investigator telephoned a central randomisation centre where the subject was randomised to a particular treatment group using a dynamic balanced randomisation algorithm. The subject was given three doses of their allocated study medication and instructed to take a single dose of two tablets 20 minutes before they intended to go to sleep on three consecutive evenings, commencing that evening. The diary cards for the Loughborough Sleep Log and Karolinska Sleepiness Scale were asked to be completed on waking.
(§6) 198 candidates completed the study, of whom 178 provided evaluable data. (61 placebo, 60 on 2.5 mg triprolidine and 57 on 5 mg triprolidine. The subjects on 2.5 mg dose took one tablet and placebo those on 5 mg dose took 2×2.5 mg tablets. The subjects on placebo took a dose to match the active treatments (2 tablets).
The study design used 3 groups. On average, the number of individuals in each of the 3 groups (placebo, 2.5 mg triprolidine and 5 mg triprolidine) was 60±10 patients.
In the trial, patients were tested during a seven day period and the results have been analysed for a mean of three days in the middle of this period. The effects of triprolidine at dose level 2.5 mg and 5.0 mg are compared with placebo in table 1.
Generally the treatment groups were well balanced in terms of the demographic data. Unless otherwise mentioned all group data was analysed using ANOVA. […]

[2] = system: patients with temporary sleep disturbance; assay: Clinical trial: Karolinska 9-point sleepiness scale; format: in vivo, human; conditions: for Karolinska 9-point scale (a) I feel extremely alert, very alert or alert, %: scales 1, 2 or 3
Text: as §1, §2, §3, §4, §5
A daytime sleepiness assessment was also made 20 minutes, 2 hours and 4 hours after awaking on the Karolinska 9-point scale, ie. the sleepiness scale.
as §6
(§7) Generally the treatment groups were well balanced in terms of the demographic data. Unless otherwise mentioned all group data was analysed using ANOVA. In two cases, namely, how the patient felt 15 minutes after awakening in the Loughborough Sleep Log and the Karolinska Sleepiness Scale at 20 minutes, the two variables were analysed using ANCOVA by including the weekend and the mean of Friday/Saturday/Sunday night as a covariate. The method was a closed test procedure (Williams' test). Each of the tests were to be conducted at the 5% level. The analysis of the secondary endpoints was similarly conducted using the Student's t-tests on parameter estimates taken from the analysis of variance model presented above.
Karolinska's sleepiness scale is set out below and the results for placebo, 2.5 and 5.0 mg doses of triprolidine are shown in tables 4 and 5. […]

[3] = system: patients with temporary sleep disturbance; assay: Clinical trial: Loughborough sleep log questionnaire; format: in vivo, human; conditions: for Loughborough Sleep Log: Awoke Very Refreshed or Refreshed Responses, %: % of patients
Text: as §1, §2, §3, §4, §5
Candidates were required to complete a questionnaire 15 minutes after awaking on the feeling of refreshedness assessed on a 5-point scale, the Loughborough sleep log.
as §6
as §7, with “above. […]” for “above.”

volunteers = conditions: single doses 10 mg or 20 mg sustained release at bedtime; cited from earlier work
[4] = 2.5 mg, mean of the 3 nights, p<0.05
[5] = both treatments (2.5 mg and 5 mg), every treatment night

## Cc1ccc(/C(=C\CN2CCCC2)c2ccccn2)cc1 [triprolidine]
[1]; 2.5 mg dose 20 min before sleep, Mon
  SDI (%) (Sleep latency onset and Quality of sleep) (Actimeter), Mean: 11.33%
[1]; 2.5 mg dose, Mean of 3
  SDI (%) (Sleep latency onset and Quality of sleep) (Actimeter), Mean: 11.56%
  TTSO (min) (Time to Sleep onset) (Actimeter), Mean: 15.53 min
[1]; 2.5 mg dose, Mon
  TTSO (min) (Time to Sleep onset) (Actimeter), Mean: 16.22 min
[1]; 2.5 mg dose, Tues
  SDI (%) (Sleep latency onset and Quality of sleep) (Actimeter), Mean: 12.15%
  TTSO (min) (Time to Sleep onset) (Actimeter), Mean: 15.62 min
[1]; 2.5 mg dose, Wed
  SDI (%) (Sleep latency onset and Quality of sleep) (Actimeter), Mean: 11.2%
[1]; 2.5 mg, mean of the 3 nights, p<0.01
  SDI compared to placebo: significantly reduced
[1]; [4]
  sleep latency onset compared to placebo: reduced
[1]; 5 mg dose, Mean of 3
  SDI (%) (Sleep latency onset and Quality of sleep) (Actimeter), Mean: 12.23%
  TTSO (min) (Time to Sleep onset) (Actimeter), Mean: 16.93 min
[1]; 5 mg dose, Mon
  SDI (%) (Sleep latency onset and Quality of sleep) (Actimeter), Mean: 11.72%
  TTSO (min) (Time to Sleep onset) (Actimeter), Mean: 16.16 min
[1]; 5 mg dose, Tues
  SDI (%) (Sleep latency onset and Quality of sleep) (Actimeter), Mean: 12.71%
  TTSO (min) (Time to Sleep onset) (Actimeter), Mean: 17.88 min
[1]; 5 mg dose, Wed
  SDI (%) (Sleep latency onset and Quality of sleep) (Actimeter), Mean: 11.81%
  TTSO (min) (Time to Sleep onset) (Actimeter), Mean: 16.36 min
[1]; [5]
  SDI compared with placebo: reduced
  sleep latency onset compared with placebo: reduced
[2]; 2.5 mg dose, Wednesday, Karolinska scales 8 and 9, on waking
  (b) I feel (i) sleepy, [and need to make] some effort or (ii) very sleepy, a great effort to keep awake, %: 6.5%
[2]; 2.5 mg dose, Wednesday, on waking
  Karolinska 9-point scale (a) I feel extremely alert, very alert or alert, %: 21.0%
[2]; 2.5 mg, mean of the 3 nights
  percentage of people feeling alert, very alert or extremely alert on waking vs placebo (Karolinska log): greater percentage
  percentage of people feeling sleepy or very sleepy on waking vs placebo (Karolinska log): lower percentage
  residual hangover effects/morning grogginess: no evidence of residual hangover effects/morning grogginess
[2]; 5 mg dose, Monday, on waking
  Karolinska 9-point scale (a) I feel extremely alert, very alert or alert, %: 6.3%
[2]; 5 mg dose, Tuesday, on waking
  Karolinska 9-point scale (a) I feel extremely alert, very alert or alert, %: 9.5%
[3]; 2.5 mg dose, Mean of 3
  no of times woke up (Loughborough sleep log), Mean: 1.22
  time to fall asleep (min) (Loughborough sleep log), Mean: 23.93 min
[3]; 2.5 mg dose, Mon
  no of times woke up (Loughborough sleep log), Mean: 1.18
  time to fall asleep (min) (Loughborough sleep log), Mean: 23.67 min
[3]; 2.5 mg dose, Monday
  Loughborough Sleep Log: Awoke Very Refreshed or Refreshed Responses, %: 23%
[3]; 2.5 mg dose, Tues
  no of times woke up (Loughborough sleep log), Mean: 1.37
  time to fall asleep (min) (Loughborough sleep log), Mean: 24.44 min
[3]; 2.5 mg dose, Tuesday
  Loughborough Sleep Log: Awoke Very Refreshed or Refreshed Responses, %: 23%
[3]; 2.5 mg dose, Wed
  no of times woke up (Loughborough sleep log), Mean: 1.11
  time to fall asleep (min) (Loughborough sleep log), Mean: 20.95 min
[3]; [4]
  feeling of refreshedness 15 minutes after waking vs placebo (Loughborough sleep log): more refreshed
[3]; 5 mg dose, Mean of 3
  no of times woke up (Loughborough sleep log), Mean: 1.42
  time to fall asleep (min) (Loughborough sleep log), Mean: 26.5 min
[3]; 5 mg dose, Mon
  no of times woke up (Loughborough sleep log), Mean: 1.49
  time to fall asleep (min) (Loughborough sleep log), Mean: 22.02 min
[3]; 5 mg dose, Tues
  no of times woke up (Loughborough sleep log), Mean: 1.42
  time to fall asleep (min) (Loughborough sleep log), Mean: 32.08 min
[3]; 5 mg dose, Tuesday
  Loughborough Sleep Log: Awoke Very Refreshed or Refreshed Responses, %: 8.2%
[3]; 5 mg dose, Wed
  no of times woke up (Loughborough sleep log), Mean: 1.39
  time to fall asleep (min) (Loughborough sleep log), Mean: 24.24 min
[3]; 5 mg dose, Wednesday
  Loughborough Sleep Log: Awoke Very Refreshed or Refreshed Responses, %: 14.8%
[3]; dose not stated
  individuals with response of sleeping extremely well or very well (morning log of the Loughborough sleep log): over 35%
volunteers
  sleep onset latency compared with placebo: did not significantly alter
  total sleep time compared with placebo: no effect
  wakefulness during sleep compared with placebo: no effect
